This data set relates to CCRIS mutagenicity, Ames/micronucleus/aberration tests. Briefly: CCRIS mutagenicity studies.
Where [1] appears, read: Test System: AMES SALMONELLA TYPHIMURIUM, Strain/Indicator: TA100, Metabolic Activation: NONE, Method: STANDARD PLATE.
The mark [2] stands for this setting: Test System: AMES SALMONELLA TYPHIMURIUM, Strain/Indicator: TA98, Metabolic Activation: NONE, Method: STANDARD PLATE.

The source made the active and inactive calls. No rule for the calls is given here.

Turning to `CC1(C)CC(O)CC(C)(C)N1[O]`, the mutagenic call under setting [1] is “active; positive”; the mutagenic call (Test System: AMES SALMONELLA TYPHIMURIUM, Strain/Indicator: TA102, Metabolic Activation: NONE, Method: STANDARD PLATE) is “inactive; negative”; the mutagenic call (Test System: AMES SALMONELLA TYPHIMURIUM, Strain/Indicator: TA102, Metabolic Activation: XANTHINE OXIDASE, Method: STANDARD PLATE) is “inactive; negative”; the mutagenic call (Test System: AMES SALMONELLA TYPHIMURIUM, Strain/Indicator: TA104, Metabolic Activation: NONE, Method: STANDARD PLATE) is “inactive; negative”; the mutagenic call (Test System: AMES SALMONELLA TYPHIMURIUM, Strain/Indicator: TA104, Metabolic Activation: XANTHINE OXIDASE, Method: STANDARD PLATE) is “inactive; negative”; the mutagenic call (Test System: Mouse lymphoma, Strain/Indicator: L5178Y (tk+/tk-), Metabolic Activation: None, Method: Suspension/plate) was “active; positive”. Further, the mutagenic call (Test System: Mouse lymphoma, Strain/Indicator: L5178Y (tk+/tk-), Metabolic Activation: Rat, Liver, S-9, Aroclor 1254, Method: Suspension/plate) is “active; positive”.
Regarding `O=[N+]([O-])c1c2c(cc3ccccc13)[C@@H](O)[C@H](O)C=C2`, the mutagenic call is, setting by setting: under setting [2], “active; positive”; (Test System: AMES SALMONELLA TYPHIMURIUM, Strain/Indicator: TA98, Metabolic Activation: RAT, LIVER, S-9, Method: STANDARD PLATE) “active; positive”; under setting [1], “inactive; negative”; (Test System: AMES SALMONELLA TYPHIMURIUM, Strain/Indicator: TA100, Metabolic Activation: RAT, LIVER, S-9, Method: STANDARD PLATE) “inactive; negative”.
As to `Cn1c2ccccc2c2cc(N)ccc21`, the mutagenic call runs as follows: under setting [2], “active; positive”; (Test System: AMES SALMONELLA TYPHIMURIUM, Strain/Indicator: TA98, Metabolic Activation: RAT LIVER S-9, AROCLOR 1254, Method: STANDARD PLATE) “active; positive”; under setting [1], “active; positive”; (Test System: AMES SALMONELLA TYPHIMURIUM, Strain/Indicator: TA100, Metabolic Activation: RAT LIVER S-9, AROCLOR 1254, Method: STANDARD PLATE) “active; positive”.
Consider `O=C1CCCO1`, for which the mutagenic call is, setting by setting: (End Point: IN VITRO CHROMOSOMAL ABERRATIONS, Test System: CHO CELLS, Metabolic Activation: NONE) “inactive; negative”; (End Point: IN VITRO CHROMOSOMAL ABERRATIONS, Test System: CHO CELLS, Metabolic Activation: RAT, LIVER, S-9, AROCLOR 1254) “active; positive”; (Test System: AMES SALMONELLA TYPHIMURIUM, Strain/Indicator: TA98, Metabolic Activation: HAMSTER, LIVER, S-9, AROCLOR 1254 (10%), Method: PREINCUBATION) “inactive; negative”; (Test System: AMES SALMONELLA TYPHIMURIUM, Strain/Indicator: TA98, Metabolic Activation: NONE, Method: PREINCUBATION) “inactive; negative”; (Test System: AMES SALMONELLA TYPHIMURIUM, Strain/Indicator: TA98, Metabolic Activation: RAT LIVER S-9, PHENOBARBITAL AND BETA-NAPHTHOFLAVONE, Method: PREINCUBATION) “inactive; negative”; (Test System: AMES SALMONELLA TYPHIMURIUM, Strain/Indicator: TA98, Metabolic Activation: RAT, LIVER, S-9, AROCLOR 1254 (10%), Method: PREINCUBATION) “inactive; negative”. For the same compound, the mutagenic call is “inactive; negative” (Test System: AMES SALMONELLA TYPHIMURIUM, Strain/Indicator: TA98, Metabolic Activation: RAT, LIVER, S-9, AROCLOR 1254, Method: PREINCUBATION); “inactive; negative” (Test System: AMES SALMONELLA TYPHIMURIUM, Strain/Indicator: TA100, Metabolic Activation: HAMSTER, LIVER, S-9, AROCLOR 1254 (10%), Method: PREINCUBATION); “inactive; negative” (Test System: AMES SALMONELLA TYPHIMURIUM, Strain/Indicator: TA100, Metabolic Activation: NONE, Method: PREINCUBATION); “inactive; negative” (Test System: AMES SALMONELLA TYPHIMURIUM, Strain/Indicator: TA100, Metabolic Activation: RAT LIVER S-9, PHENOBARBITAL AND BETA-NAPHTHOFLAVONE, Method: PREINCUBATION); “inactive; negative” (Test System: AMES SALMONELLA TYPHIMURIUM, Strain/Indicator: TA100, Metabolic Activation: RAT, LIVER, S-9, AROCLOR 1254 (10%), Method: PREINCUBATION); “inactive; negative” (Test System: AMES SALMONELLA TYPHIMURIUM, Strain/Indicator: TA100, Metabolic Activation: RAT, LIVER, S-9, AROCLOR 1254, Method: PREINCUBATION). The mutagenic call reads like this: (Test System: AMES SALMONELLA TYPHIMURIUM, Strain/Indicator: TA102, Metabolic Activation: NONE, Method: PREINCUBATION) “inactive; negative”; (Test System: AMES SALMONELLA TYPHIMURIUM, Strain/Indicator: TA102, Metabolic Activation: RAT LIVER S-9, PHENOBARBITAL AND BETA-NAPHTHOFLAVONE, Method: PREINCUBATION) “inactive; negative”; (Test System: AMES SALMONELLA TYPHIMURIUM, Strain/Indicator: TA102, Metabolic Activation: RAT, LIVER, S-9, AROCLOR 1254, Method: PREINCUBATION) “inactive; negative”; (Test System: AMES SALMONELLA TYPHIMURIUM, Strain/Indicator: TA104, Metabolic Activation: NONE, Method: PREINCUBATION) “inactive; negative”; (Test System: AMES SALMONELLA TYPHIMURIUM, Strain/Indicator: TA104, Metabolic Activation: RAT LIVER S-9, PHENOBARBITAL AND BETA-NAPHTHOFLAVONE, Method: PREINCUBATION) “inactive; negative”; (Test System: AMES SALMONELLA TYPHIMURIUM, Strain/Indicator: TA1535, Metabolic Activation: HAMSTER, LIVER, S-9, AROCLOR 1254 (10%), Method: PREINCUBATION) “inactive; negative”. Besides, the mutagenic call reads like this: (Test System: AMES SALMONELLA TYPHIMURIUM, Strain/Indicator: TA1535, Metabolic Activation: NONE, Method: PREINCUBATION) “inactive; negative”; (Test System: AMES SALMONELLA TYPHIMURIUM, Strain/Indicator: TA1535, Metabolic Activation: RAT LIVER S-9, PHENOBARBITAL AND BETA-NAPHTHOFLAVONE, Method: PREINCUBATION) “inactive; negative”; (Test System: AMES SALMONELLA TYPHIMURIUM, Strain/Indicator: TA1535, Metabolic Activation: RAT, LIVER, S-9, AROCLOR 1254 (10%), Method: PREINCUBATION) “inactive; negative”; (Test System: AMES SALMONELLA TYPHIMURIUM, Strain/Indicator: TA1537, Metabolic Activation: HAMSTER, LIVER, S-9, AROCLOR 1254 (10%), Method: PREINCUBATION) “inactive; negative”; (Test System: AMES SALMONELLA TYPHIMURIUM, Strain/Indicator: TA1537, Metabolic Activation: NONE, Method: PREINCUBATION) “inactive; negative”; (Test System: AMES SALMONELLA TYPHIMURIUM, Strain/Indicator: TA1537, Metabolic Activation: RAT LIVER S-9, PHENOBARBITAL AND BETA-NAPHTHOFLAVONE, Method: PREINCUBATION) “inactive; negative”. The mutagenic call (Test System: AMES SALMONELLA TYPHIMURIUM, Strain/Indicator: TA1537, Metabolic Activation: RAT, LIVER, S-9, AROCLOR 1254 (10%), Method: PREINCUBATION) is “inactive; negative”; the mutagenic call (Test System: E.COLI, Strain/Indicator: WP2UVRA, Metabolic Activation: NONE, Method: PREINCUBATION) is “inactive; negative”; the mutagenic call (Test System: E.COLI, Strain/Indicator: WP2UVRA, Metabolic Activation: RAT LIVER S-9, PHENOBARBITAL AND BETA-NAPHTHOFLAVONE, Method: PREINCUBATION) is “inactive; negative”; the mutagenic call (Test System: E.COLI, Strain/Indicator: WP2UVRA\PKM101, Metabolic Activation: NONE, Method: PREINCUBATION) is “inactive; negative”; the mutagenic call (Test System: E.COLI, Strain/Indicator: WP2UVRA\PKM101, Metabolic Activation: RAT LIVER S-9, PHENOBARBITAL AND BETA-NAPHTHOFLAVONE, Method: PREINCUBATION) is “inactive; negative”.

The record behind these values is PubChem BioAssay AID1259407 (Chemical Carcinogenesis Research Information System (CCRIS), 2018).
